From patent publication US6800750B1, “Mc1-1 gene regulatory elements and a pro-apoptotic mc1-1 variant” (Dartmouth College, priority 1999, dated 2004)
Where two headings read alike, the source gives them in different places.

Legend:
[1] = system: Mcl-1; settings: cited from earlier work
[2] = system: Erk-1 and Erk-2; experiment: Phosphorylation state of MAP kinase proteins in ML-1 cells; type: cell-based, human
[3] = system: Mcl-1; experiment: Endogenous Mcl-1 expression in ML-1 cells exposed to inducers and inhibitors; type: cell-based, human
[4] = system: human Mcl-1 5′-flanking sequence; experiment: Transient luciferase expression assay of Mcl-1 reporter plasmids in K-562 cells; type: cell-based
Source text: A 1.7 kilobase (kb) XbaI/XmaI human Mcl-1 genomic fragment representing nucleotide residues −1656 to +160, where +1 denotes the major transcriptional start site, along with a 14 base pair (bp) adapter ligated to its 3′ end to place the luciferase gene in the correct reading frame, was inserted into NheI and HindIII digested pGL2-Basic luciferase reporter vector (Promega; Madison Wis.), yielding p(−1656)Mcl-1luc.
A series of 5′-deleted plasmids were constructed by double digestion of p(−1656)Mcl-1luc with SmaI, which cuts just upstream of the Mcl-1 insert, and restriction enzymes known to cut at unique sites within the Mcl-1 insert. […] Additional plasmids were constructed using PCR, including p(−107)Mcl-1luc, p(−51)Mcl-1luc, and p(+11)Mcl-1luc; the PCR products were sequenced to confirm their identity.
Specific mutations were introduced into the p(−162)Mcl-1luc plasmid using a two stage PCR method of Chen and Boxer (supra, 1995). The Ets site at nucleotides −129 to −121 was converted from CCGGAAGC (SEQ ID NO: 4) to CCTTAAGC (SEQ ID NO: 5;ΔEts); the Sp1 site at nucleotides −118 to −113 was converted from CCGCCC (SEQ ID NO: 6) to CTGACC (SEQ ID NO: 7;ΔSp1); and the SRE at nucleotides −106 to −97 was converted from CCTTTTATGG (SEQ ID NO:8) to CCTTCGGCTG (SEQ ID NO: 9;ΔSRE); altered nucleotides are indicated in bold type. All mutations were verified by sequencing. The PCR products containing the desired mutations were digested with BstEII and EcoRI, and ligated into the p(−162)Mcl-1luc plasmid, which had been digested with the same enzymes.
Electroporation was carried out with K-562 cells using the following protocol, which was based on preliminary experiments aimed at optimizing luciferase activity. Cells were washed twice and resuspended in PBS (5×10^6 cells in 0.5 ml) in the presence of 10 μg luciferase reporter plasmid, along with the pCMVhGH internal control plasmid used in most experiments (10 μg). After incubation on ice for 10 min, cells were electroporated (960 μF and 280 V; Bio-Rad Gene Pulser; Hercules Calif.), placed on ice for 15 min, then incubated at 37° C. (1×10^5 cells/ml) in Iscove's Modified Dulbecco's medium supplemented with 10% FBS, 100 units/ml penicillin, and 100 μg/ml streptomycin. After 17 hr, the cell suspension was divided into two portions, one of which was left untreated and the other of which was exposed to 1.7×10^−9 M TPA, which increased Mcl-1 expression in K-562 cells in a manner equivalent to that observed with 5×10^−10 TPA in ML-1 cells (Pahl et al., Expt. Hematol. 19:1038-1041 (1991), which is incorporated herein by reference). After 7 hr of exposure to TPA, when induction was at or near a peak level, cells were washed with PBS, then assayed in triplicate for luciferase activity (relative light units; Brasier et al., In “Current Protocols in Molecular Biology (Ausubel et al., eds.; John Wiley & Sons, N.Y. 1995), which is incorporated herein by reference; see pages 9.7.12-9.7.21) using a Microlite ML2250 Microtiter plate luminometer (Dynatech Laboratories; Chantilly Va.).
In most experiments, a human growth hormone reporter plasmid, pCMVhGH (10 μg), was used as a control for transfection efficiency. pCMVhGH yielded a linear increase in activity upon transfection with 2 to 10 μg plasmid, where activity with 2 μg of plasmid was near the limit of sensitivity of the hGH assay, but activity with 5 to 10 μg was sufficiently above background to be accurately quantified.
The experimental design, wherein an aliquot of cells electroporated with a test plasmid is divided into two portions, one of which was exposed to TPA and the other of which was not, was selected because CMV-based plasmids are subject to induction by TPA. […] Luciferase activity in both portions of cells was normalized to hGH production (assayed in triplicate in the portion of the sample not exposed to TPA).

[5] = system: ML-1 cells; settings: cited from earlier work
[6] = system: Hela cells; experiment: Transient transfection cell death assay in Hela cells (β-gal marker, morphology scoring); type: cell-based, human
Procedure: Two types of expression constructs were prepared for use in transfection into mammalian cells. In one set of constructs, Mcl-1 or the Mcl-1s/ΔTM variant were expressed in the pCR3.1 vector; in the second set of constructs, Mcl-1 was fused to green fluorescent protein (GFP). The Mcl-1 RT-PCR reaction products from the F4/R4 primer pair reactions (SEQ ID NOS: 15 and 17, respectively; cloned in pCR3.1) were digested with KpnI (a KpnI site is present in the F4 primer; SEQ ID NO: 15) and HindIII, as was full length Mcl-1(Mcl-1 clone p3.2 in pBluescriptII SK); Kozopas et al., supra, 1993) and the resulting 5′ region of the cDNA was isolated and ligated into pCR3.1 to yield full length Mcl-1 and Mcl-1s/ΔM. […]
The pCR3.1-based Mcl-1 clones were transiently transfected into subconfluent monolayers of Hela cells in 12 well plates using SUPERFECT (Qiagen). […] Forty hr after transfection, cells were fixed, stained for β-gal activity, and analyzed microscopically to assess cell morphology. Transfection experiments were performed in a double blind manner and cells were scored either as having a normal, viable morphology (flat, healthy cells) or an abnormal morphology characteristic of dying cells (dense, rounded, detaching cells). All blue staining cells in each dish were counted and the results were expressed as percentages of cells with viable versus dying phenotypes.

CCCCCCCCCCCCCC(=O)O[C@@H]1[C@@H](C)[C@@]2(O)[C@@H](C=C(CO)C[C@]3(O)C(=O)C(C)=C[C@@H]23)[C@@H]2C(C)(C)[C@]12OC(C)=O [TPA, 12-O-tetradecanoylphorbol acetate]
time at which increase in Mcl-1 mRNA is detectable ([1]; ML-1 cells): ≤ 1 h | Mcl-1 mRNA level relative to peak value ([1]; ML-1 cells, within 1 day): about 50% | Mcl-1 level with TPA above low basal level ([1]; TPA without ERK inhibitor): ~10 fold | phosphorylation of Erk-1 and Erk-2 [2]: increased phosphorylation | Mcl-1 expression ([3]; ML-1 cells): induced | increase in reporter gene activity in response to TPA ([4]; 162 bp segment of human Mcl-1 5′-flanking sequence): approximately 10 fold | induction of luciferase activity by TPA ([4]; K-562 cells, Mcl-1-luciferase reporter constructs, test of cell lines): about 10 fold | increase in luciferase activity after treatment with TPA ([4]; K-562 cells, luciferase reporter driven by 1654 base pair segment of Mcl-1 5′ flanking region): approximately 8 fold | increase in activity in the presence of TPA over reduced basal value ([4]; K-562 cells, p(−107)Mcl-1luc and p(−51)Mcl-1luc): approximately 3.5 fold | induction by TPA ([4]; K-562 cells, p(−162)Mcl-1luc site mutation experiment (FIG. 3C)): 9 fold | increase in luciferase activity in the presence of TPA ([4]; K-562 cells, p(−1656)Mcl-1luc): about 10 fold | fold-induction by TPA ([4]; K-562 cells, wild-type plasmid, additional experiments): about 11 fold | fold-induction by TPA above reduced basal value ([4]; K-562 cells, ΔSRE/ΔEts plasmid): about 4 fold | induction of luciferase activity by TPA ([4]; p(−162)Mcl-1luc and p(−1663)Mcl-1luc, absence of pCMVhGH): about 13.5 fold | induction of luciferase activity by TPA ([4]; p(−162)Mcl-1luc and p(−1663)Mcl-1luc, presence of pCMVhGH): about 10.5 fold

COc1cccc(-c2cc(=O)c3ccccc3o2)c1N [PD 98059]
basal Mcl-1 expression relative to value in the absence of PD 98059 ([1]; endogenously expressing cells, 8.5 hr assay period): about 25% | induction of endogenous Mcl-1 by TPA in the presence of PD 98059 ([1]; endogenously expressing cells): about 3.5 fold | cell death ([5]; ERK inhibitor applied alone): not accompanied by cell death | cell death ([5]; ERK inhibitor applied in conjunction with TPA): cells died by apoptosis | effect on up-regulation of Mcl-1 expression by TPA, colchicine and vinblastine ([3]; ML-1 cells): prevented | decrease of TPA-induced luciferase activity ([4]; K-562 cells, 1654 base pair reporter, PD 98059 prior to TPA exposure): 78% | effect on TPA-induced increase in luciferase activity ([4]; K-562 cells, FIG. 2C): substantially, but not completely, inhibited | effect on basal luciferase activity ([4]; K-562 transfected cells, absence of TPA): caused a decline in basal activity

CC(=O)O[C@H]1C(=O)[C@@]2(C)[C@H]([C@H](OC(=O)c3ccccc3)[C@]3(O)C[C@H](OC(=O)[C@H](O)[C@@H](NC(=O)c4ccccc4)c4ccccc4)C(C)=C1C3(C)C)[C@]1(OC(C)=O)CO[C@@H]1C[C@@H]2O [paclitaxel]
effect of pretreatment on increase in Mcl-1 expression produced by TPA [3]: not | effect of pretreatment on increase in Mcl-1 expression produced by colchicine or vinblastine [3]: blocked

CC[C@]1(O)C[C@@H]2CN(CCc3c([nH]c4ccccc34)[C@@](C(=O)OC)(c3cc4c(cc3OC)N(C)[C@H]3[C@@](O)(C(=O)OC)[C@H](OC(C)=O)[C@]5(CC)C=CCN6CC[C@]43[C@@H]65)C2)C1 [vinblastine]
Mcl-1 expression ([3]; ML-1 cells): induced

COc1cc2c(c(OC)c1OC)-c1ccc(OC)c(=O)cc1[C@@H](NC(C)=O)CC2 [colchicine]
Mcl-1 expression ([3]; ML-1 cells): induced

B1: Mcl-1s/ΔTM: 271 amino acid pro-apoptotic Mcl-1 splice variant, SEQ ID NO: 3, exon 1 joined to exon 3 (protein, listed as Homo sapiens)
chain: MFGLKRNAVIGLNLYCGGAGLGAGSGGATRPGGRLLATEKEASARREIGGGEAGAVIGGSAGASPPSTLTPDSRRVARPPPIGAEVPDVTATPARLLFFAPTRRAAPLEEMEAPAADAIMSPEEELDGYEPEPLGKRPAVLPLLELVGESGNNTSTDGSLPSTPPPAEEEEDELYRQSLEIISRYLREQATGAKDTKPMGRSGATSRKALETLRRVGDGVQRNHETVFQGWVCGVLPCRGPRRWHQECAAGFCRCCWSRSWFGISNKIALL
killing of cells, quantitated by double blind scoring of blue staining cells [6]: as effective as Bax
